Read-outs that look alike come from different tables or passages of the source. Where no end group is shown, it is not given here.
How the values were obtained:
TA3Ha cells [1] = test: Tumor growth suppression by vaccination with Tn antigen (A-OSM or A-BSM), Ribi adjuvant and cyclophosphamide; type: in vivo, mouse; settings: CP only; 700 TA3Ha cells i.p.
Method: Tumor growth suppression was tested using A-OSM or A-BSM with Ribi adjuvant, which is essentially composed of trehalose dimycolate and monophosphoryl Lipid A, the effective component of mycobacteria known to stimulate immune response of T as well as B cells (Ribi et al., Clin. Immunol. Newsletter 6:33-36, 1985). A-OSM and A-BSM were produced by treatment with neuraminidase as described above. […] For example, 100 μg of A-OSM or A-BSM were mixed with 500 μg of complete Ribi adjuvant and injected subcutaneously at day −7 (i.e., 7 days before tumor cell inoculation). On day 0, 700 TA3Ha cells were injected intraperitoneally. On day 1, CP (75 mg/kg) was injected intraperitoneally. On days 2, 5, 12, and 19, 100 μg antigen/500 μg Ribi adjuvant complex was injected subcutaneously. Another experimental group was injected with CP-Ribi on days 2, 5, 12, and 19, respectively.

TA3Ha cells [2] = test: Synthetic Tn-KLH/Ribi tumor vaccine, TA3Ha challenge i.p.; type: in vivo, mouse; settings: control groups; TA3Ha i.p. day 0, CP day 1
Method: Mice were preimmunized at day −7 with 50 μg of synthetic Tn/Ribi, s.c. and were challenged with TA3Ha cells, i.p. at day 0.
Mice were immunized with 30 μg of monomeric Tn-KLH/Ribi or dimeric Tn-KLH/Ribi on days −7, 2, 5, 12 and 19.

V alpha 14 TCR = settings: cited from earlier work
V alpha 14 NKT cells = settings: cited from earlier work
[3] = test system: B16 melanoma and mouse colonic carcinoma Colon 26; settings: mice bearing various tumors; cited from earlier work
antibody to Le^y = settings: cited from earlier work
MHC Class I Kb / Db = settings: peptides binding MHC Class I Kb; cited from earlier work
[4] = test system: B16 melanoma cells of clones F-1 or F-10; test: Active immunization with GM3 lactone, B16 melanoma development; type: in vivo; settings: immunized BALB/c mice
Method: Ten BALB/c mice were immunized with native GM3 or GM3 lactone coated on acid-treated Salmonella minnesota. Immunization was carried out by intravenous injection of 200 μl of the GM3 or GM3 lactone preparation once per week for 4 weeks. Subsequently, 1.0×10^5 B16 melanoma cells of clones F-1 or F-10, were subcutaneously injected into the back of the mice and tumor growth was observed after 20 days. As controls, other glycolipids, such as paragloboside coated on acid-treated Salmonella minnesota, and Salmonella minnesota alone, were used in the same amounts as discussed above.
In the table, the numbers indicate the number of animal which died over the total number of animals immunized.

[5] = cited from earlier work

For `O=P1(N(CCCl)CCCl)NCCCO1` (stereo not shown) [CP, Cyclophosphamide], the “most animals had died by” value (TA3Ha cells [1]) was 20 to 30 days, the tumor growth suppression (TA3Ha cells [1]) was “some tumor growth suppression” and the “survival of tumor challenge” value (TA3Ha cells [2]) was “did not survive tumor challenge”.

In the case of `CCCCCCCCCCCCCCCCCCCCCCCCCC(=O)N[C@@H](CO[C@H]1O[C@H](CO)[C@H](O)[C@H](O)[C@H]1O)[C@H](O)[C@H](O)CCCCCCCCCCCCCC` [alpha-GalCer], the “binding to V alpha 14 TCR” value (V alpha 14 TCR) is given as “bind V alpha 14 TCR”, the “proliferation of V alpha 14 NKT cells” value (V alpha 14 NKT cells) is given as “stimulate proliferation” and the “tumor growth and metastasis” value [3] is given as “abrogated tumor growth and metastasis”.

In the case of “APWLYGPA [peptide selected from phage display library with antibody to Le^y]”, the “binding of the antibody to Le^y” value (antibody to Le^y) is given as “inhibited binding”.

For “Di-Gal (Galα1-4Gal) oligosaccharide linked to N or P of FAPGNYPAL: di-Gal linked to MHC Class I Kb binding peptide FAPGNYPAL (also: di-Gal (Galα1-4Gal) linked to N or P)”, the “cytotoxic T cell response to the oligosaccharide residue” value (MHC Class I Kb / Db) is given as “elicited a cytotoxic T cell response”.

For “Di-Gal (Galα1-4Gal) oligosaccharide linked to V or Q of RGYVYQGL: di-Gal linked to MHC Class I Kb binding peptide RGYVYQGL (also: di-Gal (Galα1-4Gal) linked to V or Q)”, the “cytotoxic T cell response to the oligosaccharide residue” value (MHC Class I Kb / Db) is given as “elicited a cytotoxic T cell response”.

With GM3 the tumor growth reduced [4] was “not”.

For GM3 lactone, the tumor growth reduced [4] is listed as “reduced”, the “stability of the structure” value ([5]; acidic to neutral pH) is listed as “relatively stable” and the “stability of the structure” value ([5]; alkaline pH) is listed as “unstable”.

— patent US20030170249A1, “Vaccines directed to cancer-associated carbohydrate antigens” (priority 1999, published 2003)
